Tests used:
[1] = biological target: tyrosine kinases (PTK) in colon carcinoma PDX lysates; test: PamChip tyrosine kinase (PTK) activity profiling of colon carcinoma PDX tumor lysates; parameters: species or system human PDX grown in mice; Kinase score: scale not given here; settings: for Kinase statistic: value<0 = higher activity in vehicle-treated tumors; for Kinase score: vehicle-treated vs KcAng(1-7)-treated tumors
Description: (§1) In particular, to determine the effect of treatment on kinase activities, Tyrosine (PTK) and Serine/Threonine (STK) PamChip®-based kinase activity profiling in lysates from colon carcinoma PDX was performed by PamGene International B.V., The Netherlands.
(§2) PamGene® kinase activity profiles were measured for vehicle-treated colon cancer PDX tumors (control, n=10) and KcAng(1-7)-treated colon cancer PDX tumors (treatment, n=10).
(§3) Frozen tissues of tumor samples were processed to make lysates followed by determination of tyrosine kinase and serine/threonine kinase activity profiles. Datasets were analyzed by PamGene bioinformatics toolbox, for example by using PamGene's method called Upstream Kinase Analysis.
(§4) Kinase Score was used for ranking kinases based on their significance and specificity in terms of the set of peptides used for the corresponding kinase. Kinase statistics indicates the overall change of the peptide set that represents the kinase. Kinase statistics value<0 indicates higher activity in vehicle-treated tumors.

[2] = biological target: serine/threonine kinases (STK) in colon carcinoma PDX lysates; test: PamChip serine/threonine kinase (STK) activity profiling of colon carcinoma PDX tumor lysates; parameters: species or system human PDX grown in mice; Kinase score: scale not given here; settings: for Kinase statistic: value<0 = higher activity in vehicle-treated tumors; for Kinase score: vehicle-treated vs KcAng(1-7)-treated tumors
Description: as §1, §2, §3, §4

U251MG glioblastoma CDX = test: Tumor hemoglobin level (indirect angiogenesis) in U251MG CDX; assay type: in vivo, cd1 nu/nu mice (human GBM cell line); settings: KcAng(1-7) 1 μg/kg/d, Losartan 20 mg/kg/d, or both
Description: Efficacy of treatment was evaluated by: […] In brief, tumors were homogenized in double-distilled water. Eighty microliters of homogenates were mixed with 1 mL of Drabkin's solution and incubated for 15 min at room temperature. After centrifugation at 400×g for 5 min, the supernatants were subjected to absorbance measurement at 540 nm. The absorption, which is proportional to hemoglobin concentration, was divided by tumor weight. Effect of KcAng(1-7) and Losartan against heterotopic U251MG cell culture-based xenografts (CDX) in mice. Animals were treated either with vehicle, treated with 20 mg/kg/d Losartan, treated with 1 μ[…](1-7) or treated with a combination of KcAng(1-7) and with Losartan.

In the case of “Lys-Asp-Arg-Val-Abu/Ala-Ile-His-Abu/Ala (KDRVAIHA; not fully specified; cyclic thioether (Abu/Ala bridge); VARIANT (5)..(5) /replace=“Abu”; VARIANT (8)..(8) /replace=“Abu”; SITE (1)..(8) /note=“Variant residues given in the sequence have no preference with respect to those in the annotations for variant positions”) [KcAng(1-7)]”, the Kinase statistic ([1]; kinase CCK4/PTK7) is reported as −0.58, the Kinase score ([1]; kinase CCK4/PTK7) is reported as 2.23 and the Kinase statistic ([1]; kinase EPHA1) is reported as −0.52. The Kinase score ([1]; kinase EPHA1) was 2.01, the Kinase statistic ([1]; kinase EPHA2) was −0.50 and the Kinase score ([1]; kinase EPHA2) was 1.96. It also gave a Kinase statistic ([1]; kinase EPHA3) of −0.55, a Kinase score ([1]; kinase EPHA3) of 2.38 and a Kinase statistic ([1]; kinase EPHA4) of −0.52. The Kinase score ([1]; kinase EPHA4) was 2.55, the Kinase statistic ([1]; kinase EPHA8) was −0.51 and the Kinase score ([1]; kinase EPHA8) was 1.71. For the same substance, the Kinase statistic ([1]; kinase FER) was −0.51, the Kinase score ([1]; kinase FER) was 2.49 and the Kinase statistic ([1]; kinase FES) was −0.47. The Kinase score ([1]; kinase FES) was 1.84, the Kinase statistic ([1]; kinase FGFR1) was −0.49 and the Kinase score ([1]; kinase FGFR1) was 2.39. For the same substance, the Kinase statistic ([1]; kinase FGFR2) was −0.47, the Kinase score ([1]; kinase FGFR2) was 1.82 and the Kinase statistic ([1]; kinase FGFR3) was −0.48. The Kinase score ([1]; kinase FGFR3) was 1.89, the Kinase statistic ([1]; kinase HER2) was −0.47 and the Kinase score ([1]; kinase HER2) was 2.68. For the same substance, the Kinase statistic ([1]; kinase HER4) was −0.47, the Kinase score ([1]; kinase HER4) was 2.11 and the Kinase statistic ([1]; kinase JAK1~B) was −0.49. For the same substance, the Kinase score ([1]; kinase JAK1~B) was 1.70, the Kinase statistic ([1]; kinase LMR1) was −0.71 and the Kinase score ([1]; kinase LMR1) was 4.10. It also gave a Kinase statistic ([1]; kinase MER) of −0.44, a Kinase score ([1]; kinase MER) of 1.74 and a Kinase statistic ([1]; kinase MET) of −0.46. The Kinase score ([1]; kinase MET) was 2.16, the Kinase statistic ([1]; kinase TEC) was −0.44 and the Kinase score ([1]; kinase TEC) was 1.79. The Kinase statistic ([1]; kinase TXK) was −0.46, the Kinase score ([1]; kinase TXK) was 2.05 and the Kinase statistic ([1]; kinase TYRO3/SKY) was −0.45. For the same substance, the Kinase score ([1]; kinase TYRO3/SKY) was 2.03, the Kinase statistic ([2]; kinase CDC2/CDK1) was −0.80 and the Kinase score ([2]; kinase CDC2/CDK1) was 3.79. The Kinase statistic ([2]; kinase CDK2) was −0.88, the Kinase score ([2]; kinase CDK2) was 5.40 and the Kinase statistic ([2]; kinase CDK4) was −0.80. For the same substance, the Kinase score ([2]; kinase CDK4) was 3.11, the Kinase statistic ([2]; kinase CDK5) was −0.80 and the Kinase score ([2]; kinase CDK5) was 3.11. For the same substance, the Kinase statistic ([2]; kinase CDK6) was −0.80, the Kinase score ([2]; kinase CDK6) was 3.10 and the Kinase statistic ([2]; kinase CDK9) was −0.83. It also gave a Kinase score ([2]; kinase CDK9) of 4.19, a Kinase statistic ([2]; kinase CDKL2) of −0.98 and a Kinase score ([2]; kinase CDKL2) of 4.62. For the same substance, the Kinase statistic ([2]; kinase CDKL5) was −0.82, the Kinase score ([2]; kinase CDKL5) was 4.21 and the Kinase statistic ([2]; kinase ERK1) was −0.82. For the same substance, the Kinase score ([2]; kinase ERK1) was 4.44, the Kinase statistic ([2]; kinase ERK2) was −0.79 and the Kinase score ([2]; kinase ERK2) was 3.84. The Kinase statistic ([2]; kinase ERK5) was −0.90, the Kinase score ([2]; kinase ERK5) was 5.40 and the Kinase statistic ([2]; kinase JNK1) was −0.77. For the same substance, the Kinase score ([2]; kinase JNK1) was 3.92, the Kinase statistic ([2]; kinase JNK2) was −0.77 and the Kinase score ([2]; kinase JNK2) was 3.67. The Kinase statistic ([2]; kinase JNK3) was −0.77, the Kinase score ([2]; kinase JNK3) was 4.08 and the Kinase statistic ([2]; kinase MAPK14) was −0.79. For the same substance, the Kinase score ([2]; kinase MAPK14) was 3.54, the Kinase statistic ([2]; kinase PCTAIRE2) was −0.74 and the Kinase score ([2]; kinase PCTAIRE2) was 3.44. For the same substance, the Kinase statistic ([2]; kinase RAF1) was −0.74, the Kinase score ([2]; kinase RAF1) was 2.97 and the Kinase statistic ([2]; kinase RSK3) was −0.75. It also gave a Kinase score ([2]; kinase RSK3) of 3.42, a Kinase statistic ([2]; kinase p38[beta]) of −0.84 and a Kinase score ([2]; kinase p38[beta]) of 4.14. For the same substance, the Kinase statistic ([2]; kinase p38[gamma]) was −0.82, the Kinase score ([2]; kinase p38[gamma]) was 3.47 and the “Tumor hemoglobin level, mean (± SEM)” value (U251MG glioblastoma CDX) was 18.7 ± 2.1 mg Hb/g of tissue.
